# Experimental data from patent publication US20050112573A1, “Method of detecting toxic substance” (priority 2001, published 2005).
# Test system: yeast genes (level of expressed mRNA)
# Assay: DNA chip analysis of expressed mRNA of yeast genes after 2 h culture with a toxic chemical substance
# Format: cell-based, Saccharomyces cerevisiae S288C
# How it was run: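 Values are treated-to-control fluorescence ratios from a whole-yeast-genome DNA chip (65° C, over 12 h hybridization) using Cy3/Cy5-labelled cDNA from mRNA. Log-phase S288C cells in YPD at 25° C were exposed 2 h to a toxicant at sublethal, growth-inhibiting concentration.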
substance,measurement,setting,value
CdCl2 [(2)],The level of expressed mRNA in the presence of chemical substance/,"yeast gene YFL010C, ratio to control without chemical substance, 2 h culture",4.8
same,The level of expressed mRNA in the presence of chemical substance/,"yeast gene YFL024C, ratio to control without chemical substance, 2 h culture",1.1
same,The level of expressed mRNA in the presence of chemical substance/The level of expressed mRNA in the absence of chemical substance,yeast gene YFL028C,1.1
same,The level of expressed mRNA in the presence of chemical substance/,"yeast gene YFL032W, ratio to control without chemical substance, 2 h culture",1.5
same,The level of expressed mRNA in the presence of chemical substance/The level of expressed mRNA in the absence of chemical substance,yeast gene YFL043C,1.2
same,The level of expressed mRNA in the presence of chemical substance/in the absence of chemical substance,yeast gene YGL035C,1.4
same,The level of expressed mRNA in the presence of chemical substance/,"yeast gene YGL037C, ratio to control without chemical substance, 2 h culture",2.7
same,The level of expressed mRNA in the presence of chemical substance/,"yeast gene YGL047W, ratio to control without chemical substance, 2 h culture",1.9
same,The level of expressed mRNA in the presence of chemical substance/,"yeast gene YGL053W, ratio to control without chemical substance, 2 h culture",1.5
same,The level of expressed mRNA in the presence of chemical substance/,"yeast gene YGL121C, ratio to control without chemical substance, 2 h culture",5.0
same,The level of expressed mRNA in the presence of chemical substance/The level of expressed mRNA in the absence of chemical substance,yeast gene YGL158W,2.8
same,The level of expressed mRNA in the presence of chemical substance/,"yeast gene YGL199C, ratio to control without chemical substance, 2 h culture",1.7
same,The level of expressed mRNA in the presence of chemical substance/The level of expressed mRNA in the absence of chemical substance,yeast gene YGL229C,0.7
same,The level of expressed mRNA in the presence of chemical substance/,"yeast gene YGR101W, ratio to control without chemical substance, 2 h culture",1.3
same,The level of expressed mRNA in the presence of chemical substance/,"yeast gene YGR110W, ratio to control without chemical substance, 2 h culture",3.1
same,The level of expressed mRNA in the presence of chemical substance/,"yeast gene YGR130C, ratio to control without chemical substance, 2 h culture",0.7
same,The level of expressed mRNA in the presence of chemical substance/The level of expressed mRNA in the absence of chemical substance,yeast gene YGR136W,1.2
same,The level of expressed mRNA in the presence of chemical substance/,"yeast gene YGR154C, ratio to control without chemical substance, 2 h culture",2.9
same,The level of expressed mRNA in the presence of chemical substance/The level of expressed mRNA in the absence of chemical substance,yeast gene YGR189C,0.9
same,The level of expressed mRNA in the presence of chemical substance/The level of expressed mRNA in the absence of chemical substance,yeast gene YGR213C,2.9
same,The level of expressed mRNA in the presence of chemical substance/,"yeast gene YGR221C, ratio to control without chemical substance, 2 h culture",2.2
same,The level of expressed mRNA in the presence of chemical substance/The level of expressed mRNA in the absence of chemical substance,yeast gene YGR257C,0.8
same,The level of expressed mRNA in the presence of chemical substance/in the absence of chemical substance,yeast gene YGR287C,1.0
same,The level of expressed mRNA in the presence of chemical substance/The level of expressed mRNA in the absence of chemical substance,yeast gene YHR004C,1.1
same,The level of expressed mRNA in the presence of chemical substance/The level of expressed mRNA in the absence of chemical substance,yeast gene YHR071W,1.1
same,The level of expressed mRNA in the presence of chemical substance/,"yeast gene YHR138C, ratio to control without chemical substance, 2 h culture",1.8
same,The level of expressed mRNA in the presence of chemical substance/The level of expressed mRNA in the absence of chemical substance,yeast gene YHR139C,4.6
same,The level of expressed mRNA in the presence of chemical substance/The level of expressed mRNA in the absence of chemical substance,yeast gene YHR142W,0.8
same,The level of expressed mRNA in the presence of chemical substance/,"yeast gene YHR199C, ratio to control without chemical substance, 2 h culture",2.0
same,The level of expressed mRNA in the presence of chemical substance/,"yeast gene YIL023C, ratio to control without chemical",1.2
same,The level of expressed mRNA in the presence of chemical substance/,"yeast gene YIL041W, ratio to control without chemical substance, 2 h culture",1.2
same,The level of expressed mRNA in the presence of chemical substance/,"yeast gene YIL087C, ratio to control without chemical substance, 2 h culture",1.9
same,The level of expressed mRNA in the presence of chemical substance/The level of expressed mRNA in the absence of chemical substance,yeast gene YIL123W,0.5
same,The level of expressed mRNA in the presence of chemical substance/The level of expressed mRNA in the absence of chemical substance,yeast gene YIL140W,1.0
same,The level of expressed mRNA in the presence of chemical substance/,"yeast gene YJL057C, ratio to control without chemical substance, 2 h culture",1.2
same,The level of expressed mRNA in the presence of chemical substance/,"yeast gene YJL066C, ratio to control without chemical substance, 2 h culture",1.2
same,The level of expressed mRNA in the presence of chemical substance/in the absence of chemical substance,yeast gene YJL070C,0.9
same,The level of expressed mRNA in the presence of chemical substance/The level of expressed mRNA in the absence of chemical substance,yeast gene YJL073W,0.8
same,The level of expressed mRNA in the presence of chemical substance/,"yeast gene YJL082W, ratio to control without chemical substance, 2 h culture",0.8
same,The level of expressed mRNA in the presence of chemical substance/The level of expressed mRNA in the absence of chemical substance,yeast gene YJL089W,1.5
same,The level of expressed mRNA in the presence of chemical substance/The level of expressed mRNA in the absence of chemical substance,yeast gene YJL116C,1.8
same,The level of expressed mRNA in the presence of chemical substance/,"yeast gene YJL151C, ratio to control without chemical substance, 2 h culture",2.4
same,The level of expressed mRNA in the presence of chemical substance/,"yeast gene YJL152W, ratio to control without chemical substance, 2 h culture",1.5
same,The level of expressed mRNA in the presence of chemical substance/,"yeast gene YJL161W, ratio to control without chemical substance, 2 h culture",2.2
same,The level of expressed mRNA in the presence of chemical substance/in the absence of chemical substance,yeast gene YJL167W,1.4
same,The level of expressed mRNA in the presence of chemical substance/,"yeast gene YJL171C, ratio to control without chemical substance, 2 h culture",0.7
same,The level of expressed mRNA in the presence of chemical substance/in the absence of chemical substance,yeast gene YJL216C,4.7
same,The level of expressed mRNA in the presence of chemical substance/The level of expressed mRNA in the absence of chemical substance,yeast gene YJR004C,0.8
same,The level of expressed mRNA in the presence of chemical substance/,"yeast gene YJR008W, ratio to control without chemical substance, 2 h culture",1.5
same,The level of expressed mRNA in the presence of chemical substance/,"yeast gene YJR054W, ratio to control without chemical",0.9
same,The level of expressed mRNA in the presence of chemical substance/The level of expressed mRNA in the absence of chemical substance,yeast gene YJR086W,1.1
same,The level of expressed mRNA in the presence of chemical substance/The level of expressed mRNA in the absence of chemical substance,yeast gene YKL008C,0.6
same,The level of expressed mRNA in the presence of chemical substance/The level of expressed mRNA in the absence of chemical substance,yeast gene YKL013C,0.9
same,The level of expressed mRNA in the presence of chemical substance/The level of expressed mRNA in the absence of chemical substance,yeast gene YKL039W,1.1
same,The level of expressed mRNA in the presence of chemical substance/The level of expressed mRNA in the absence of chemical substance,yeast gene YKL041W,0.8
same,The level of expressed mRNA in the presence of chemical substance/,"yeast gene YKL071W, ratio to control without chemical substance, 2 h culture",3.8
